According to patent publication US11339154B2, “Heterocycle-substituted bicyclic azole pesticides” (FMC Corporation, priority 2016, dated 2022):

Experiments:
Assay type in all cases: in vivo
[1] = test system: Western Flower Thrips (Frankliniellla occidentalis (Pergande)); assay: Test F: control of Western Flower Thrips on Soleil bean plant, contact and/or systemic, spray; details: 50 ppm spray; 6 days; very good to excellent control; criterion is plant damage and/or 100% mortality
Experimental: (§1) Formulation and Spray Methodology for Tests A-F
(§2) Test compounds were formulated using a solution containing 10% acetone, 90% water and 300 ppm X-77® Spreader Lo-Foam Formula non-ionic surfactant containing alkylarylpolyoxyethylene, free fatty acids, glycols and isopropanol (Loveland Industries, Inc. Greeley, Colo., USA). The formulated compounds were applied in 1 mL of liquid through a SUJ2 atomizer nozzle with 1/8 JJ custom body (Spraying Systems Co. Wheaton, Ill., USA) positioned 1.27 cm (0.5 inches) above the top of each test unit. Test compounds were sprayed at the rates indicated, and each test was replicated three times.
For evaluating control of the Western Flower Thrips (Frankliniellla occidentalis (Pergande)) through contact and/or systemic means, the test unit consisted of a small open container with a 5-7-day-old Soleil bean plant inside.
Test compounds were formulated and sprayed at 250 and/or 50 ppm. After spraying, the test units were allowed to dry for 1 hour, and then 22-27 adult thrips were added to each unit. A black, screened cap was placed on top, and the test units were held for 6 days at 25° C. and 45-55% relative humidity.

[2] = test system: green peach aphid (Myzus persicae (Sulzer)); assay: whole plant or invertebrate; details: in Raphanus sativus, 144 h, 6 days; for mortality at 50 ppm: 50 ppm spray; for mortality at 250 ppm: 250 ppm spray
Experimental: as §1, §2
For evaluating control of green peach aphid (Myzus persicae (Sulzer)) through contact and/or systemic means, the test unit consisted of a small open container with a 12-15-day-old radish plant inside. This was pre-infested by placing on a leaf of the test plant 30-40 aphids on a piece of leaf excised from a culture plant (cut-leaf method). The aphids moved onto the test plant as the leaf piece desiccated. After pre-infestation, the soil of the test unit was covered with a layer of sand.
Test compounds were formulated and sprayed at 250 and/or 50 ppm. After spraying of the formulated test compound, each test unit was allowed to dry for 1 hour and then a black, screened cap was placed on top. The test units were held for 6 days in a growth chamber at 19-21° C. and 50-70% relative humidity. Each test unit was then visually assessed for insect mortality.

[3] = test system: cotton melon aphid (Aphis gossypii (Glover)); assay: whole plant or invertebrate; details: 144 h, 6 days; for mortality at 50 ppm: 50 ppm spray; for mortality at 250 ppm: 250 ppm spray
Experimental: as §1, §2
For evaluating control of cotton melon aphid (Aphis gossypii (Glover)) through contact and/or systemic means, the test unit consisted of a small open container with a 6-7-day-old cotton plant inside. This was pre-infested with 30-40 insects on a piece of leaf according to the cut-leaf method, and the soil of the test unit was covered with a layer of sand.
Test compounds were formulated and sprayed at 250 and/or 50 ppm. After spraying, the test units were maintained in a growth chamber for 6 days at 19° C. and 70% relative humidity. Each test unit was then visually assessed for insect mortality.

[4] = test system: sweetpotato whitefly (Bemisia tabaci (Gennadius)); assay: whole plant or invertebrate; details: in Gossypium hirsutum, 312 h, 13 days; for mortality at 50 ppm: 50 ppm spray; for mortality at 250 ppm: 250 ppm spray
Experimental: as §1, §2
For evaluating control of the sweetpotato whitefly (Bemisia tabaci (Gennadius)) through contact and/or systemic means, the test unit consisted of a small open container with a 12-14-day-old cotton plant inside. Prior to the spray application, both cotyledons were removed from the plant, leaving one true leaf for the assay. Adult whiteflies were allowed to lay eggs on the plant and then were removed from the test unit. Cotton plants infested with at least 15 eggs were submitted to the test for spraying.
Test compounds were formulated and sprayed at 250 and/or 50 ppm. After spraying, the test units were allowed to dry for 1 hour. The cylinders were then removed, and the units were taken to a growth chamber and held for 13 days at 28° C. and 50-70% relative humidity. Each test unit was then visually assessed for insect mortality.

Row | SMILES | control efficacy: plant damage (30% or less plant damage and/or 100% mortality) [1] [%] | mortality at 50 ppm [2] [%] | mortality at 250 ppm [2] [%] | mortality at 50 ppm [3] [%] | mortality at 250 ppm [3] [%] | mortality at 50 ppm [4] [%] | mortality at 250 ppm [4] [%]
1 | COC(CNC(=O)c1ccc(-c2ccc3nn(-c4cccnc4)cc3c2)c(Cl)c1)OC [Compound 18] | ≤ 30 | – | – | – | – | – | –
2 | COC(CNC(=O)c1cccc(-c2ccc3nn(-c4cccnc4)cc3c2)c1)OC [Compound 25, N-(2,2-dimethoxyethyl)-3-[2-(3-pyridinyl)-2H-indazol-5-yl]benzamide] | – | ≥ 80 | ≥ 80 | ≥ 80 | ≥ 80 | ≥ 50 | ≥ 50
3 | O=C(NCCO)c1cccc(-c2ccc3nn(-c4cccnc4)cc3c2)c1 [Compound 31, N-(2-hydroxyethyl)-3-[2-(3-pyridinyl)-2H-indazol-5-yl]benzamide] | – | ≥ 80 | ≥ 80 | ≥ 80 | ≥ 80 | – | –
4 | O=C(NC1CCOCC1)c1csc(-c2ccc3nn(-c4cccnc4)cc3c2)n1 [Compound 64, 2-[2-(3-pyridinyl)-2H-indazol-5-yl]-N-(tetrahydro-2H-pyran-4-yl)-4-thiazolecarboxamide] | – | ≥ 80 | ≥ 80 | ≥ 80 | ≥ 80 | – | ≥ 50
5 | O=C(NCc1ncccn1)c1ncsc1-c1ccc2nn(-c3cccnc3)cc2c1 [Compound 78, 5-[2-(3-pyridinyl)-2H-indazol-5-yl]-N-(2-pyrimidinylmethyl)-4-thiazolecarboxamide] | – | ≥ 80 | ≥ 80 | ≥ 80 | – | – | –
6 | CNC(=O)C1(NC(=O)c2cc(-c3ccc4nn(-c5cccnc5)cc4c3)ccn2)CC1 [Compound 85, N-[1-[(methylamino)carbonyl]cyclopropyl]-4-[2-(3-pyridinyl)-2H-indazol-5-yl]-2-pyridinecarboxamide] | – | ≥ 80 | – | ≥ 80 | – | – | –
7 | NC(=O)C1(NC(=O)c2cc(-c3ccc4nn(-c5cccnc5)cc4c3)ccn2)CC1 [Compound 86, N-[1-(aminocarbonyl)cyclopropyl]-4-[2-(3-pyridinyl)-2H-indazol-5-yl]-2-pyridinecarboxamide] | – | ≥ 80 | – | ≥ 80 | – | – | –
8 | CN(C)C(=O)C1(NC(=O)c2cc(-c3ccc4nn(-c5cccnc5)cc4c3)ccn2)CC1 [Compound 87, N-[1-[(dimethylamino)carbonyl]cyclopropyl]-4-[2-(3-pyridinyl)-2H-indazol-5-yl]-2-pyridinecarboxamide] | – | ≥ 80 | – | ≥ 80 | – | – | –
9 | CNC(=O)COc1cccc(-c2ccc3nn(-c4cccnc4)cc3c2)c1 [Compound 102, N-methyl-2-[3-[2-(3-pyridinyl)-2H-indazol-5-yl]phenoxy]acetamide] | – | ≥ 80 | – | ≥ 80 | – | ≥ 50 | ≥ 50
10 | COC(=O)C(C)(C)NC(=O)c1nnc(-c2ccc3nn(-c4cccnc4)cc3c2)o1 [Compound 105, 2-methyl-N-[[5-[2-(3-pyridinyl)-2H-indazol-5-yl]-1,3,4-oxadiazol-2-yl]carbonyl]alanine methyl ester] | – | – | – | ≥ 80 | – | – | –
11 | COC(=O)C(C)(C)NC(=O)c1nnc(-c2ccc3nn(-c4cccnc4)cc3c2)s1 [Compound 128, 2-methyl-N-[[5-[2-(3-pyridinyl)-2H-indazol-5-yl]-1,3,4-thiadiazol-2-yl]carbonyl]alanine methyl ester] | – | – | – | ≥ 80 | – | – | –
12 | CC(C)(C#N)NC(=O)c1coc(-c2ccc3nn(-c4cccnc4)cc3c2)n1 [Compound 155, N-(1-cyano-1-methylethyl)-2-[2-(3-pyridinyl)-2H-indazol-5-yl]-4-oxazolecarboxamide] | – | ≥ 80 | – | ≥ 80 | – | – | –
